How the values were obtained:
Format in all cases: cell-based, human
HCT116-DoxR cells [1] = assay: Apoptosis by Annexin V-FITC/PI flow cytometry; conditions: 48 h, complexes at IC50, Dox 6 μM, Cis 5 μM
Experimental: Initially, a quantitative assay with double staining using annexin V-FITC (FITC, fluorescein isothiocyanate) and propidium iodide (PI) through flow cytometry was performed.[24] Annexin V-FITC, a probe with an affinity for the ionic phospholipid phosphatidylserine (PS), predominantly located on the inner side of the plasma membrane in healthy cells, undergoes translocation to the outer plasma membrane during the early stages of apoptosis.[61],[67] In contrast, PI is a DNA intercalating agent that marks cells with compromised plasma membrane (usually in the late stages of apoptosis or in necrosis), emitting red fluorescence upon interaction with nucleic acids.[54],[68] This assay allows for distinguishing cells in four different conditions: viable cells (FITC–, PI−), early apoptosis (FITC+, PI−), late apoptosis (FITC+, PI+), and necrosis (FITC–, PI+).
The Annexin V-FITC Apoptosis Detection Kit (catalog no. V13245, Invitrogen, USA) was used in this study for the induction of apoptosis analysis. HCT116-DoxR cells were seeded in 6-well plates at a cell density of 1 × 10^5 cells/mL and incubated for 24 h, under the same conditions mentioned before. […] After this incubation period, the cells were washed with PBS 1× and trypsinized with TrypLE Express (Invitrogen). The supernatant was discarded, and the pellet was washed with PBS 1×. The cells were resuspended in 1× Annexin V-FITC binding buffer. Subsequently, the samples were incubated at room temperature (RT) with Alexa Fluor 488 annexin V and 100 μg/mL of propidium iodide (PI) in the dark for 15 min. After incubation, 1× Annexin V-FITC binding buffer was added and the samples were analyzed using an Attune Acoustic Focusing Flow Cytometer (Life Technologies, Carlsbad, USA). Results were processed with Attune Cytometric software.

HCT116-DoxR cells [2] = assay: ROS production (H2DCF-DA, flow cytometry); conditions: 48 h; complexes at IC50, Dox 6 μM, Cis 5 μM
Excerpt: The literature widely describes the relationship between the induction of these types of programmed cell death and the production of reactive oxygen species (ROS).[79]−[81] ROS can arise from endogenous or exogenous sources and play a role in carcinogenesis and tumor development, causing DNA damage.[81],[82] The accumulation of high ROS levels results in oxidative stress in cancer cells, a condition that can be exploited by surpassing the intrinsic antioxidant capacity of tumor cells as a targeted therapeutic approach.[75] It is known that Cu(II) complexes induce ROS production.[38] In this regard, the production of reactive oxygen species was quantified in HCT116-DoxR cells using the 2′,7′-dichlorodihydrofluorescein diacetate (H2DCF-DA) probe, which is rapidly oxidized in the presence of ROS, generating the compound 2′,7′-dichlorodihydrofluorescein (DCF), whose fluorescence can be detected by flow cytometry.[71] The fluorescence intensity is directly proportional to the amount of intracellular ROS. […] TBHP is a widely used organic peroxide in oxidative stress studies as it activates caspase-mediated apoptosis and ROS production.[83]
The quantification of reactive oxygen species (ROS) production was performed using the probe dichlorofluorescein diacetate (H2DCF-DA) (molecular probes: reactive oxygen species (ROS) detection reagents, Invitrogen, USA). Briefly, HCT116-DoxR cells were seeded in six-well plates at a density of 1 × 10^5 cells/mL and incubated for 24 h under the conditions mentioned before. After the incubation period, the medium was replaced with fresh medium containing the tested copper complexes at their IC50 concentrations. 0.1% (v/v) DMSO solution was used as the negative control, and 6 μM Dox, 5 μM Cis, and 42 μM Tertbutyl Hydroperoxide (TBHP) were used as positive controls. The cells were incubated again under the same conditions mentioned above for 48 h. Later, the culture medium was removed, cells were washed with PBS 1× and TrypLE Express to detach them and then they were washed again with PBS 1×. After that, cells were incubated in a solution of 10 μM H2DCF-DA in PBS 1x for 20 min at 37 °C. Subsequently, the samples were analyzed by the Attune Acoustic Focusing Flow Cytometer (Life Technologies, Carlsbad, USA), and the obtained data were processed by the respective software (Attune Cytometric software).

[3] = test system: primary dermal fibroblasts; assay: Cell migration (wound healing) assay; conditions: 24 h; complexes at IC50, Dox 6 μM; DMSO control 100%
Experimental: Cellular migration is the individual movement of cells from one location to another.[96] This migratory process is an integral part of both the metastatic process and wound healing.[54] […] The in vitro wound healing assay is highly used to understand how the complexes affect cellular migration by measuring the closure of a gap previously created in the cell culture plate. […] Additionally, cells were subjected to the vehicle control of 0.1% DMSO and the positive control of Dox (6 μM), and the percentage of remission/regeneration was calculated (Figure 18).
Fibroblasts were seeded in 24-well plates at a cell density of 4 × 10^5 cells/mL. The plates were incubated for 24 h under the same conditions described before until a confluent cell monolayer was obtained. […] The cells were incubated at 37 °C for 48 h. The plates were photographed under an inverted microscope (Nikon TMS, Nikon Instruments, Tokyo, Japan) at 4× magnification (immediately after exposure to the complexes (0 h), 24, and 48 h following exposure).

Question: Which results are given for `[Cl][Cu-3]12([Cl])[n+]3ccccc3-c3cc(-c4cccc5ccccc45)cc([n+]31)-c1cccc[n+]12` [Cu1a]?
Answer: viable cells (HCT116-DoxR cells [1]): 23.1% ± 4.5; ROS production higher than DMSO control (HCT116-DoxR cells [2]): 1.42 ×; percentage of remission/regeneration of the wound [3]: approximately 66%

Question: With `COc1cccc2c1C(=O)c1c(O)c3c(c(O)c1C2=O)C[C@@](O)(C(=O)CO)C[C@@H]3O[C@H]1C[C@H](N)[C@H](O)[C@H](C)O1` [Doxorubicin] as the compound, how does the early apoptosis (HCT116-DoxR cells [1]) read?
Answer: Its early apoptosis is 16.6% ± 5.5.

Question: And the late apoptosis (HCT116-DoxR cells [1])?
Answer: Its late apoptosis is 13.9% ± 1.9.

Question: What about the necrosis (HCT116-DoxR cells [1]) of the same compound?
Answer: The necrosis was 9.8% ± 4.0.

Question: And the viable cells (HCT116-DoxR cells [1])?
Answer: The viable cells was 59.8% ± 3.8.

Question: What about the late apoptosis (HCT116-DoxR cells [1]; listed as Dox) of the same compound?
Answer: Its late apoptosis is 13.9%.

Question: What about the necrosis (HCT116-DoxR cells [1]; listed as Dox) of the same compound?
Answer: Its necrosis is 9.8%.

Question: What about the viable cells (HCT116-DoxR cells [1]; listed as Dox) of the same compound?
Answer: The viable cells was “about 59.8%”.

Question: And the “ROS production higher than DMSO control” value (HCT116-DoxR cells [2])?
Answer: The value was 1.8 ×.

Question: And the “percentage of remission/regeneration of the wound” value [3]?
Answer: The value was 68%.

Question: Which results are given for `N.N.[Cl][Pt][Cl]` [Cisplatin]?
Answer: early apoptosis (HCT116-DoxR cells [1]): 40.1%; late apoptosis (HCT116-DoxR cells [1]): 25.8%; necrosis (HCT116-DoxR cells [1]): 0.9% ± 1.1; early apoptosis (HCT116-DoxR cells [1]; listed as cisplatin): 40.1% ± 11.8; late apoptosis (HCT116-DoxR cells [1]; listed as cisplatin): 25.8% ± 7.7; ROS production higher than DMSO control (HCT116-DoxR cells [2]): 2.2 ×

Question: Which necrosis (HCT116-DoxR cells [1]) does the source give for `[Cl][Cu-3]12([Cl])[n+]3ccccc3-c3cc(-c4ccc5ccccc5c4)cc([n+]31)-c1cccc[n+]12` [Cu1b] here?
Answer: Its necrosis is 0.7% ± 0.6.

Question: And the viable cells (HCT116-DoxR cells [1])?
Answer: Its viable cells is 59.3% ± 7.8.

Question: What about the “ROS production higher than DMSO control” value (HCT116-DoxR cells [2]) of the same compound?
Answer: Its value is 1.48 ×.

Question: And the “percentage of remission/regeneration of the wound” value [3]?
Answer: The value was 69%.

From paper PMC11571215, “Optimization of Antiproliferative Properties of Triimine Copper(II) Complexes” (Journal of Medicinal Chemistry, 2024)
